Several values for one entry are separate records, joined by “and”; a condition that tells them apart may be missing. Equal entries are not always repeated. Toxic doses and inconclusive results are not listed.
Tested on: P388 leukemia ip, CD2F1 mice, survival T/C
Test: NCI In Vivo Anticancer Drug Screen. Data for tumor model P388 Leukemia (intraperitoneal) in CD2F1 (CDF1) mice
Conditions: endpoint: median survival time, higher = longer survival
Summary of the method: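 Mice carrying the transplanted tumor received test compound or vehicle. Survival was recorded in each group, and the value is the treated-group measurement divided by that of the vehicle-treated control group.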

[1] = dose: 50.0 mg/kg/injection, schedule: Q01DX009 (ip), vehicle: Klucel (hydroxypropylcellulose) (HPC)

For `CCCCCCCCC1SC1CCCCCCCC(=O)OCC1CS1` (centres undefined), the T/C (dose: 100.0 mg/kg/injection, schedule: Q01DX001 (ip), vehicle: other) was 100 % of control, the T/C (dose: 200.0 mg/kg/injection, schedule: Q01DX001 (ip), vehicle: other) was 100 % of control and the T/C (dose: 400.0 mg/kg/injection, schedule: Q01DX001 (ip), vehicle: other) was 100 % of control.
With `CCOC(=O)\C(C#N)=C/C=C(C)/C(C)=C/Nc1ccc([N+](=O)[O-])cc1[N+](=O)[O-]` the T/C (dose: 50.0 mg/kg/injection, schedule: Q01DX005 (ip), vehicle: Klucel (hydroxypropylcellulose) (HPC)) was 101 % of control, the T/C (dose: 100.0 mg/kg/injection, schedule: Q01DX005 (ip), vehicle: Klucel (hydroxypropylcellulose) (HPC)) was 91 % of control and the T/C (dose: 200.0 mg/kg/injection, schedule: Q01DX005 (ip), vehicle: Klucel (hydroxypropylcellulose) (HPC)) was 91 % of control.
With `Nc1ccn(C2OC(COP(=O)(O)O)C(O)C2O)c(=O)n1` (centres undefined) the T/C (dose: 100.0 mg/kg/injection, schedule: Q04DX003 (ip), vehicle: saline with Tween-80) was 150 % of control, the T/C (dose: 264.0 mg/kg/injection, schedule: Q04DX003 (ip), vehicle: saline with Tween-80) was 181 % of control and the T/C (dose: 400.0 mg/kg/injection, schedule: Q04DX003 (ip), vehicle: saline with Tween-80) was 166 % of control and 177 % of control. For the same molecule, the T/C (dose: 600.0 mg/kg/injection, schedule: Q04DX003 (ip), vehicle: saline with Tween-80) was 209 % of control.
In the case of `CC1CC[N-]CC1.CC1CC[N-]CC1.CS(C)=O.[Cl][Rh]([Cl])[Cl]`, the T/C (dose: 3.0 mg/kg/injection, schedule: Q01DX009 (ip), vehicle: saline with Tween-80) is reported as 104 % of control, the T/C (dose: 3.0 mg/kg/injection, schedule: Q04DX003 (ip), vehicle: saline with Tween-80) is reported as 104 % of control and the T/C (dose: 6.0 mg/kg/injection, schedule: Q01DX009 (ip), vehicle: saline with Tween-80) is reported as 95 % of control. For the same molecule, the T/C (dose: 6.0 mg/kg/injection, schedule: Q04DX003 (ip), vehicle: saline with Tween-80) was 100 % of control, the T/C (dose: 12.0 mg/kg/injection, schedule: Q01DX009 (ip), vehicle: saline with Tween-80) was 95 % of control and the T/C (dose: 12.0 mg/kg/injection, schedule: Q04DX003 (ip), vehicle: saline with Tween-80) was 109 % of control.
In the case of `COc1ccc(S(=O)(=O)N2OC2c2ccccc2)cc1` (centres undefined), the T/C [1] is reported as 100 % of control and the T/C (dose: 100.0 mg/kg/injection, schedule: Q01DX009 (ip), vehicle: Klucel (hydroxypropylcellulose) (HPC)) is reported as 100 % of control.
In the case of `O=C(N/N=C\c1ccc(Cl)cc1)c1ccccc1`, the T/C (dose: 50.0 mg/kg/injection, schedule: Q01DX009 (ip), vehicle: saline with Tween-80) is reported as 95 % of control, the T/C (dose: 100.0 mg/kg/injection, schedule: Q01DX009 (ip), vehicle: saline with Tween-80) is reported as 90 % of control and the T/C (dose: 200.0 mg/kg/injection, schedule: Q01DX009 (ip), vehicle: saline with Tween-80) is reported as 104 % of control.
In the case of `CCOC(=O)C(Cc1ccc(N(CCCl)CCCl)cc1)NC(=O)C(N)CCC(=O)O` (centres undefined), the T/C (dose: 5.0 mg/kg/injection, schedule: Q04DX003 (ip), vehicle: water) is reported as 166 % of control, the T/C (dose: 6.25 mg/kg/injection, schedule: Q01DX009 (ip), vehicle: Klucel (hydroxypropylcellulose) (HPC)) is reported as 169 % of control and the T/C (dose: 10.0 mg/kg/injection, schedule: Q04DX003 (ip), vehicle: water) is reported as 161 % of control and 196 % of control. The T/C (dose: 12.5 mg/kg/injection, schedule: Q01DX009 (ip), vehicle: Klucel (hydroxypropylcellulose) (HPC)) was 202 % of control and 247 % of control, the T/C (dose: 20.0 mg/kg/injection, schedule: Q04DX003 (ip), vehicle: water) was 233 % of control and 321 % of control and the T/C (dose: 25.0 mg/kg/injection, schedule: Q01DX009 (ip), vehicle: Klucel (hydroxypropylcellulose) (HPC)) was 196 % of control. The T/C (dose: 40.0 mg/kg/injection, schedule: Q04DX003 (ip), vehicle: water) was 122 % of control and 348 % of control and the T/C [1] was 92 % of control.
With `O=C(S)CC1(O)CCCCC12OC2c1ccccc1` (centres undefined) the T/C (dose: 100.0 mg/kg/injection, schedule: Q01DX001 (ip), vehicle: Klucel (hydroxypropylcellulose) (HPC)) was 99 % of control, the T/C (dose: 200.0 mg/kg/injection, schedule: Q01DX001 (ip), vehicle: Klucel (hydroxypropylcellulose) (HPC)) was 104 % of control and the T/C (dose: 400.0 mg/kg/injection, schedule: Q01DX001 (ip), vehicle: Klucel (hydroxypropylcellulose) (HPC)) was 103 % of control.
`O=C(OCCc1c[nH]c2ccccc12)N(CCCl)CCCl` was tested, and the T/C (dose: 1.56 mg/kg/injection, schedule: Q01DX009 (ip), vehicle: distilled water + Tween-80) was 101 % of control, the T/C (dose: 3.12 mg/kg/injection, schedule: Q01DX009 (ip), vehicle: distilled water + Tween-80) was 103 % of control and the T/C (dose: 6.25 mg/kg/injection, schedule: Q01DX009 (ip), vehicle: distilled water + Tween-80) was 105 % of control. For the same molecule, the T/C (dose: 12.5 mg/kg/injection, schedule: Q01DX009 (ip), vehicle: distilled water + Tween-80) was 109 % of control and the T/C (dose: 25.0 mg/kg/injection, schedule: Q01DX009 (ip), vehicle: distilled water + Tween-80) was 111 % of control.
In the case of `N#CC(C(=O)C(=O)Nc1cccc(C(F)(F)F)c1)c1c(Cl)cccc1Cl` (centres undefined), the T/C (dose: 50.0 mg/kg/injection, schedule: Q01DX005 (ip), vehicle: saline with Tween-80) is reported as 98 % of control, the T/C (dose: 100.0 mg/kg/injection, schedule: Q01DX005 (ip), vehicle: saline with Tween-80) is reported as 100 % of control and the T/C (dose: 200.0 mg/kg/injection, schedule: Q01DX005 (ip), vehicle: saline with Tween-80) is reported as 100 % of control.
For `C=CC(=O)N/C(N)=N\C(N)=O`, the T/C (dose: 3.0 mg/kg/injection, schedule: Q01DX005 (ip), vehicle: saline) was 110 % of control, the T/C (dose: 6.0 mg/kg/injection, schedule: Q01DX005 (ip), vehicle: saline) was 112 % of control and the T/C (dose: 12.0 mg/kg/injection, schedule: Q01DX005 (ip), vehicle: saline) was 113 % of control. The T/C (dose: 12.5 mg/kg/injection, schedule: Q01DX005 (ip), vehicle: saline) was 113 % of control.

From PubChem BioAssay AID330 (DTP/NCI, 2004)
